Results on two compounds are retold here after article PMC9323797, “4-Substituted Thieno[3,2-d]pyrimidines as Dual-Stage Antiplasmodial Derivatives” (Pharmaceuticals, 2022).

Where two headings read alike, the source gives them in different places.

The test system of one data set is P. berghei. Description: Hepatic-stage antiplasmodial evaluation (PbGFP sporozoites in primary simian hepatocytes, high content imaging). To be noted: mean ± SD of three independent experiments. It is filed as cell-based. From the text: P. berghei sporozoites constitutively expressing green fluorescent protein (PbGFP, ANKA strain) were obtained by the dissection of salivary glands from infected Anopheles stephensi mosquitoes bred and infected in the insectary facilities of UMR-S 1135 (CIMI, Paris, France). Infected salivary glands were removed by hand dissection, crushed in a potter, and filtered through a 40 μm filter for sporozoite isolation (Cell Strainer, BD BioSciences, San Jose, CA, USA). The sporozoites were counted using a disposable plastic microscope slide (KOVA).
(§1) Primary simian hepatocytes were isolated from liver segments collected from healthy Macaca fascicularis from CEA, Fontenay aux Roses, France. All hepatocytes were obtained using collagenase perfusion, as previously described, and were immediately cryopreserved. One day before infection, the cryopreserved hepatocytes were thawed at 37 °C and were seeded into collagen-coated (5 µg/cm^2 rat tail collagen I, Invitrogen, Carlsbad, CA, USA) 96-well plate, at a density of 80,000 cells per well. They were cultured at 37 °C in 5% CO2 in William’s E medium (Gibco, Life Technologies, Saint Aubin, France) supplemented with 10% of Fetal Bovine Serum FCIII, 5 × 10^–5 M hydrocortisone hemisuccinate (Serb Laboratories, Paris, France), 5 μg per ml bovine insulin (Sigma Aldrich, St. Louis, MO, USA), 2 mM L-glutamine, and 0.02 U per ml-0.02 μg per ml penicillin-streptomycin (Life Technologies) until infection with sporozoites.
(§2) Sporozoites of P. berghei were re-suspended in the above complete medium used for the hepatocytes culture. Simian hepatocytes were inoculated in 50 μL of complete media with 20,000 P. berghei-sporozoites/well in 96-well plates. The infected culture plates were centrifuged for 10 min at 900× g to allow fast parasite sedimentation onto the target cells and were further incubated with the serial dilution of drugs that were prepared in advance. After 3 h of incubation, cultures were washed and further incubated in a fresh medium containing the appropriate drug concentration, which were changed every 24 h during the study period. Cultured hepatocytes were fixed using 4% paraformaldehyde (PFA) for 15 min at room temperature. Host cell and parasite nuclei were labelled with 4′,6-diamidino-2-phenylindole (DAPI). Upon fixation and immunostaining, cell culture plates were analyzed in order to determine the number and size of the parasites using a Cell Insight High Content Screening platform equipped with the Studio HCS software (Thermo Fisher Scientific, Waltham, MA, USA). The parasite size reduction was calculated on the average object area using the total surface area of each selected object (μm^2). To assess the cell toxicity of drugs for hepatic cultures, fixed plates were further scanned for the DAPI signal representing host nuclei. The analysis was based on counting of total cell nuclei. GraphPad Prism 7 statistical software (GraphPad. Software, San Diego, CA, USA) was used for data analysis and graphing. All values were expressed as means and standard deviations (SD).

Data set [1] is described as follows: Cytotoxicity on primary simian hepatocytes (DAPI count of host cell nuclei). It is filed as cell-based, Macaca fascicularis. The following applies: Macaca fascicularis, count of total cell nuclei, mean ± SD of three independent experiments. As to the method: as §1, §2
Data set [2] has as its system P. falciparum K1. More on the design: method as in PMID 25791675. To be noted: asexual blood stages, K1 strain; cited from earlier work.
Another data set deals with HepG2. More on the design: method as in PMID 25791675. The following applies: cited from earlier work.
The test system of data set [3] is Primary Simian Hepatocytes. Description: Cytotoxicity on primary simian hepatocytes (DAPI count of host cell nuclei). To be noted: count of total cell nuclei, mean ± SD of three independent experiments. It is filed as cell-based, Macaca fascicularis. How it is done:
as §1, §2

For data set [4], the system named is P. falciparum K1. Description: Blood-stage antiplasmodial evaluation (SYBR Green I fluorescence, 72 h). The format is cell-based, Plasmodium falciparum. To be noted: asexual blood stages, drug-resistant K1 strain, 72 h incubation, mean ± SD of three independent experiments. As to the method:
A K1 culture-adapted P. falciparum strain resistant to chloroquine, pyrimethamine, and proguanil was used in an in vitro culture. It was maintained in a continuous culture, as described previously by Trager and Jensen. Cultures were maintained in fresh A+ human erythrocytes at 2.5% hematocrit in a complete medium (RPMI 1640 with 25 mM HEPES, 25 mM NaHCO3, and 10% of A+ human serum) at 37 °C under a reduced O2 atmosphere (gas mixture: 10% O2, 5% CO2, and 85% N2). Parasitemia was maintained daily between 1 and 3%. The P. falciparum drug susceptibility test was carried out by comparing quantities of DNA in treated and control cultures of parasite in human erythrocytes, according to a SYBR Green I fluorescence-based method using a 96-well fluorescence plate reader. Compounds, previously dissolved in DMSO (final concentration less than 0.5% v/v), were incubated in a total assay volume of 200 μL (RPMI, 2% hematocrit and 0.4% parasitemia) for 72 h in a humidified atmosphere (10% O2 and 5% CO2) at 37 °C, in 96-well flat bottom plates. Duplicate assays were performed for each sample. After incubation, plates were frozen at […] for 24 h. Then, the frozen plates were thawed for 1 h at 37 °C. A total of 15 μL of each sample was transferred to 96-well flat-bottom non-sterile black plates (Greiner Bio-One, Kremsmünster, Austria) already containing 15 μL of the SYBR Green I lysis buffer (2X SYBR Green I, 20 mM Tris base pH 7.5, 20 mM EDTA, 0.008% w/v saponin, 0.08% w/v Triton X-100). Negative control treated by solvents (DMSO or H2O) and positive controls (chloroquine) were added to each set of experiments. Plates were incubated for 15 min at 37 °C and then read on a TECAN Infinite F-200 spectrophotometer with excitation and emission wavelengths at 485 and 535 nm, respectively. The concentrations of compounds required to induce a 50% decrease in parasite growth (EC50 K1) were calculated from three independent experiments.

Data set [5] can be described thus: Cytotoxic evaluation on HepG2 cell line (MTT, 72 h). The format is cell-based, human. The following applies: HepG2 cells (hepatocarcinoma cell line, ATCC HB-8065); human hepatoma cell line HepG2, MTT, 72 h, mean ± SD of three independent experiments. As to the method: The HepG2 cell line (hepatocarcinoma cell line purchased from ATCC, ref HB-8065) was maintained at 37 °C, 5% CO2, with 90% humidity in MEM supplemented with 10% fetal bovine serum, 1% L-glutamine (200 mM), penicillin (100 U/mL), and streptomycin (100 μg/mL) (complete MEM medium). The evaluation of the cytotoxicity of the tested molecules was performed according to the method of Mosmann, with slight modifications. Briefly, 5.103 cells in 100 μL of the complete medium were inoculated into each well of a 96-well plate and incubated at 37 °C in a humidified 5% CO2. After 24 h incubation, 100 μL of medium with various product concentrations dissolved in DMSO (final concentration less than 0.5% v/v) was added and the plates were incubated for 72 h at 37 °C. Triplicate assays were performed for each sample. Each plate well was then microscope-examined for detecting possible precipitate formation before the medium was aspirated from the wells. A total of 100 μL of MTT (3-(4,5-dimethyl-2-thiazolyl)-2,5-diphenyl-2H-tetrazolium bromide) solution (0.5 mg/mL in medium without FCS) was then added to each well. Cells were incubated for 2 h at 37 °C. After this time, the MTT solution was removed and DMSO (100 μL) was added to dissolve the resulting blue formazan crystals. Plates were shaken vigorously (700 rpm) for 10 min. The absorbance was measured at 570 nm, with 630 nm as a reference wavelength using a TECAN Infinite F-200 Microplate Reader. DMSO was used as a blank and doxorubicin (purchased from Sigma Aldrich, St. Louis, MO, USA) was used as a positive control. Cell viability was calculated as a percentage of control (cells incubated without compound). The 50% cytotoxic concentration (CC50) was determined from the dose–response curve by using the TableCurve software 2D v.5.0. CC50 values represent the mean value calculated from three independent experiments.

In general, EC50 refers to the concentration giving half of the maximal effect. For the compound `Cc1ccc(-c2cc3nc(NC(C)(C)C)[nH]c(=O)c3s2)cc1` [Compound 1, Gamhepathiopine, reference compound], the EC50 with P. berghei (Plasmodium berghei, Hepatocyte) was 24.3 ± 1.6 µM; with P. falciparum K1 [2] it was 0.2 ± 0.02 µM. For the same compound, the figures for the CC50 (in data set [1]; in the data set on HepG2) were above 200 µM and 25.6 ± 3.1 µM, respectively.
On to `COCCNc1nc(NC(C)(C)C)nc2cc(-c3ccc(C)cc3)sc12` [Compound 10g, N^2-(tert-butyl)-N^4-(2-methoxyethyl)-6-(p-tolyl)thieno[3,2-d]pyrimidine-2,4-diamine], for which the EC50 with P. berghei (Plasmodium berghei, Hepatocyte) is around 5 µM; in the data set with P. berghei, 6.3 ± 0.2 µM; with P. falciparum K1 [4] (Plasmodium falciparum, K1, 72 h, read-out: P. falciparum K1 EC50) it was 0.8 ± 0.2 µM. Also, in data set [3], the “Primary Simian Hepatocytes CC50” value was “cytotoxic”. In data set [1], the CC50 is 7.8 ± 2.3 µM. Further, in the data set on P. falciparum K1 [4], the “P. falciparum K1 EC50” value is recorded as “micromolar range”. In data set [5], this compound displayed a CC50 at 72 h of 3.7 ± 0.9 µM.
